Tests used:
recombinant Aurora A = target: T1, recombinant Aurora A (Homo sapiens, UniProt O14965); assay: Aurora A (Aurora 2) inhibition assay, Z'-Lyte kinase assay; format: biochemical; conditions: ATP 10 μM, 1 h
T1 construct: purchased Upstate, Lake Placid, N.Y
T1 sequence (O14965 1-403): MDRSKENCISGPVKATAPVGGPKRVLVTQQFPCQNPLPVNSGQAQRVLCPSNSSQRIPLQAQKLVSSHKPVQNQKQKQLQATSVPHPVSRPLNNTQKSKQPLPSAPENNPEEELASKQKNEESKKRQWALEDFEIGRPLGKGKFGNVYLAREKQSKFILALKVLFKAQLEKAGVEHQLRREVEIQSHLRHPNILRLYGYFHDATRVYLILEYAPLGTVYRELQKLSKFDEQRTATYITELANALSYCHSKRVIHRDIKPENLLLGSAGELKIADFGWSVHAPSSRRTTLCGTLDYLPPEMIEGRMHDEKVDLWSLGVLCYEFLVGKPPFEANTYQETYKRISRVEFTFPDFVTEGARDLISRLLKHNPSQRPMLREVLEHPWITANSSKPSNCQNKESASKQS
Procedure, shortened: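 Z'-Lyte FRET assay: Aurora A (200-500 ng/mL final), Ser/Thr 1 peptide (2 μM) and ATP (10 μM) in 50 mM HEPES pH 7.5, 10 mM MgCl2, 5 mM EGTA, 0.05% Brij-35, 2 mM DTT, 1 h at room temperature. Coumarin/fluorescein emission ratio converted to percent phosphorylation; dose-response curves plotted.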

HCT116 cells = assay: Whole cell cytotoxicity assay, Sulforhodamine B; format: cell-based; conditions: Homo sapiens, HCT-116, HCT116, 96 hours incubation, SRB; for GI50: read-out: GI50 HCT116 cell growth; for IC50: read-out: IC50 values in this assay (HCT116 cell growth)
Procedure, shortened: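 HCT116 cells (500/well) in DMEM/10% FBS/2 mM glutamine were preincubated 24 h, then exposed to compound for 96 h at 37 °C, 5% CO2, in duplicate. Cells were fixed with TCA and stained with sulforhodamine B (A570). GI50, TGI and LC50 were derived relative to a time-zero plate and an untreated control.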

[1] = target: T2, N-terminal His-tagged human Src (Homo sapiens, UniProt P12931); assay: Src kinase inhibition assay (33P-ATP filter assay); format: biochemical
T2 construct: His (N); purchased Upstate USA Inc, 706 Forest Street, Charlottesville, Va
T2 sequence (P12931 whole entry): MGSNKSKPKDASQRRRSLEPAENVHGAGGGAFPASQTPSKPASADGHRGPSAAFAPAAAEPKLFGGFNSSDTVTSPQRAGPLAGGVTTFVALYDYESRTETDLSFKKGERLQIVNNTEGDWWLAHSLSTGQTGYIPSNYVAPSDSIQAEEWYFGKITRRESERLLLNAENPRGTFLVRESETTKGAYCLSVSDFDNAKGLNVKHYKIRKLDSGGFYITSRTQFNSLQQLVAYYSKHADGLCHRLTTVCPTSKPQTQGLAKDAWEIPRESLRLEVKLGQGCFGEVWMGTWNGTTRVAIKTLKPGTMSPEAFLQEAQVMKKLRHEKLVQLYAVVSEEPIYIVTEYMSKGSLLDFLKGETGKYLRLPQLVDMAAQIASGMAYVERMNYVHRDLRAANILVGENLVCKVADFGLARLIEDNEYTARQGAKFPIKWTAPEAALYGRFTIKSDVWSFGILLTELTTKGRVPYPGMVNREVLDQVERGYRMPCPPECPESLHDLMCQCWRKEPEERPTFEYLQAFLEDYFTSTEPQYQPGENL

[2] = group with IC50 greater than 100 nM

| SMILES | IC50 (recombinant Aurora A) [µM] | GI50 (HCT116 cells) [µM] | IC50 ([1]; 40 minutes at room temperature) [µM] | IC50 (HCT116 cells) [µM] | IC50 (recombinant Aurora A; [2]) [µM] | IC50 [1, 2] [µM] |
| --- | --- | --- | --- | --- | --- | --- |
| Cc1cc(Nc2cc(N3CCN(C)CC3)nc(-c3ccc(N(C)C)cc3)n2)n[nH]1 [Compound 85, 2-(4-(dimethylamino)prenyl)-N-(b-methyl-1H-pyrazol-3-yl)-6-(4-methylpiperazin-1-yl)pyrimidin-4-amine] | ≤ 0.1 | ≤ 1 | ≤ 0.1 | – | – | – |
| Cc1cc(Nc2cc(NC3CCOCC3)nc(-c3cc4cc(NS(=O)(=O)C5CC5)ccc4o3)n2)n[nH]1 [Example 156, N-(2-(4-(5-methyl-1H-pyrazol-3-ylamino)-6-(tetrahydro-2H-pyran-4-ylamino)pyrimidin-2-yl)benzofuran-5-yl)cyclopropanesulfonamide] | ≤ 0.1 | – | ≤ 0.1 | 1 to 10 | – | – |
| Cc1cc(Nc2cc(NC3CCOCC3)nc(-c3ccc(Cl)cc3)n2)n[nH]1 [Compound 22, 2-(4-chlorophenyl)-N^4-(5-methyl-1H-pyrazol-3-yl)-N^6-(tetrahydro-2H-pyran-4-yl)pyrimidine-4,6-diamine] | – | – | – | 1 to 10 | ≤ 1 | ≤ 1 |
| Cc1cc(Nc2cc(N3CCN(C)CC3)nc(-c3ccc4c(c3)OCO4)n2)n[nH]1 [Example 139, 2-(benzo[d][1,3]dioxol-5-yl)-N-(5-methyl-1H-pyrazol-3-yl)-6-(4-methylpiperazin-1-yl)pyrimidin-4-amine] | ≤ 0.1 | ≤ 1 | ≤ 0.1 | – | – | – |
| Cc1cc(Nc2cc(N3CCN(C)CC3)nc(-c3cccc(F)c3F)n2)n[nH]1 [Example 200] | – | ≤ 1 | ≤ 0.1 | – | ≤ 1 | – |
| Cc1cc(Nc2cc(N(C)CCN(C)C)nc(-c3cccc4ccoc34)n2)n[nH]1 [Example 205, 2-(benzofuran-7-yl)-N^4-(2-(dimethylamino)ethyl)-N^4-methyl-N^6-(5-methyl-1H-pyrazol-3-yl)pyrimidine-4,6-diamine] | – | – | – | 1 to 10 | ≤ 1 | ≤ 1 |
| Cc1cc(Nc2cc(N3CCN(C)CC3)nc(-c3cccc(C(F)(F)F)c3)n2)n[nH]1 [Compound 101, N-(5-methyl-1H-pyrazol-3-yl)-6-(4-methylpiperazin-1-yl)-2-(3-(trifluoromethyl)phenyl)pyrimidin-4-amine] | ≤ 0.1 | – | – | 1 to 10 | – | ≤ 1 |
| Cc1cc(Nc2cc(N3CCN(C)CC3)nc(-c3ccc(C(C)(C)C)cc3)n2)n[nH]1 [Compound 82, 2-(4-tert-butylphenyl)-N-(5-methyl-1H-pyrazol-3-yl)-6-(4-methylpiperazin-1-yl)pyrimidin-4-amine] | ≤ 0.1 | – | ≤ 0.1 | 1 to 10 | – | – |
| Cc1ccc(C)c(-c2nc(Nc3cc(C)[nH]n3)cc(N3CCN(C)CC3)n2)c1 [Example 201, 2-(2,5-dimethylphenyl)-N-(5-methyl-1H-pyrazol-3-yl)-6-(4-methylpiperazin-1-yl)pyrimidin-4-amine] | – | – | – | 1 to 10 | ≤ 1 | ≤ 1 |
| COc1cc(OC)cc(-c2nc(Nc3cc(C)[nH]n3)cc(N3CCN(C)CC3)n2)c1 [Example 191, 2-(3,5-dimethoxyphenyl)-N-(5-methyl-1H-pyrazol-3-yl)-6-(4-methylpiperazin-1-yl)pyrimidin-4-amine] | ≤ 0.1 | ≤ 1 | ≤ 0.1 | – | – | – |
| Cc1cc(Nc2cc(N3CCC(O)CC3)nc(-c3cc4ccccc4n3C)n2)n[nH]1 [Compound 3, 1-(6-(5-methyl-1H-pyrazol-3-ylamino)-2-(1-methyl-1H-indol-2-yl)pyrimidin-4-yl)piperidin-4-ol] | ≤ 0.1 | – | ≤ 0.1 | 1 to 10 | – | – |
| COCCN(C)c1cc(Nc2cc(C)[nH]n2)nc(-c2ccc3c(c2)OCO3)n1 [Example 153, 2-(benzo[d][1,3]dioxol-5-yl)-N^4-(2-methoxyethyl)-N^4-methyl-N^6-(5-methyl-1H-pyrazol-3-yl)pyrimidine-4,6-diamine] | ≤ 0.1 | – | – | 1 to 10 | – | ≤ 1 |
| Cc1cc(Nc2cc(N3CCN(C)CC3)nc(-c3ccccc3Cl)n2)n[nH]1 [Compound 37, 2-(2-chlorophenyl)-N-(5-methyl-1H-pyrazol-3-yl)-6-(4-methylpiperazin-1-yl)pyrimidin-4-amine] | – | – | ≤ 0.1 | 1 to 10 | ≤ 1 | – |
| Cc1cc(Nc2cc(NCCN3CCN(C)CC3)nc(-c3ccccc3)n2)n[nH]1 [Compound 13, N^4-(5-methyl-1H-pyrazol-3-yl)-N^6-(2-(4-methylpiperazin-1-yl)ethyl)-2-phenylpyrimidine-4,6-diamine] | – | ≤ 1 | – | – | ≤ 1 | ≤ 1 |
| Cc1cccc(-c2nc(Nc3cc(C)[nH]n3)cc(N3CCN(C)CC3)n2)c1 [Compound 39, N-(5-methyl-1H-pyrazol-3-yl)-6-(4-methylpiperazin-1-yl)-2-m-tolylpyrimidin-4-amine] | ≤ 0.1 | ≤ 1 | ≤ 0.1 | – | – | – |

Source: patent US20090029992A1, “SUBSTITUTED PYRAZOLE COMPOUNDS” (priority 2007, published 2009)
